Experimental data published in US20080104722A1, “DISEASE MODEL ANIMALS OF METABOLIC SYNDROME AND A METHOD OF SCREENING PREVENTIVE AND THERAPEUTIC AGENTS FOR METABOLIC SYNDROME USING THE SAME” (REDOX BIOSCIENCE INC., priority 2006, published 2008).

Key:
[1] = test system: TBP-2^−/− mice; assay: Glucose or oleic acid supplementation in drinking water while deprived of other food, TBP-2 knockout mice; assay type: in vivo
Procedure: Blood was collected from the tail veins. Triglyceride concentrations were measured using a Wako Triglyceride Test kit according to the manufacturer's instructions (Wako Pure Chemical Industries, Ltd.). Serum insulin levels were quantified using a Mouse Insulin ELISA kit (Shibayagi Co. Ltd.). The other blood assays were performed by Falco Biosystems Ltd. The liver was removed under anesthesia at appropriate time points, and paraffin sections were prepared. Standard hematoxylin-eosin and Oil Red O staining was performed.
(§1) Glucose and fatty acids are known to be the major energy sources from foods. The anomaly observed in TBP-2^−/− mice strongly indicates the occurrence of nutritional dysmetabolism. To examine this hypothesis, these mice were housed with free access to 20% glucose or 10% oleic acid in drinking water, while deprived of other food.

[2] = test system: Wild type mice; assay: Glucose or oleic acid supplementation in drinking water while deprived of other food, wild type mice; assay type: in vivo, mouse; settings: 20% glucose or 10% oleic acid in drinking water, deprived of other food (data not shown)
From the text: as §1

CCCCCCCC/C=C\CCCCCCCC(=O)O [oleic acid]
rescue (survival) of TBP-2^−/− mice ([1]; 10% oleic acid in drinking water, deprived of other food (FIG. 9A)): not rescued
symptoms compared with fasted TBP-2^−/− mice ([1]; oleic acid supplementation (data not shown)): identical symptoms
survival of wild type mice [2]: able to survive
